# Measured values from US20240287138A1, “CYCLIC PEPTIDES FOR INHIBITING TNF RECEPTOR 1 ACTIVITY” (Merck Sharp & Dohme LLC, priority 2023, published 2024).
# Numbered stars: 1 amine (or outer) side, 2 acyl side, 3 side chain; on linkers, the order of the positions; unused ones are H or OH. Bridge positions count the residues as written; N and C are the ends. Square brackets hold non-standard residues; d marks the D form. Peptide text beside a SMILES is read from it. * marks the point of attachment. Trp(βS-Me,7-OMe) = COc1cccc2c([C@H](C)[C@H](N)C(=O)O)c[nH]c12; X24 = O=C(O)c1ccc([C@@H](O)[C@H](N[*:1])C(=O)[*:2])cc1; X28 = NC(=O)c1ccc([C@H](O)[C@H](N[*:1])C(=O)[*:2])cc1; Trp(βS-Me) = C[C@@H](c1c[nH]c2ccccc12)[C@H](N)C(=O)O; Trp(7-CN) = N#Cc1cccc2c(C[C@H](N)C(=O)O)c[nH]c12; Trp(7-Cl) = N[C@@H](Cc1c[nH]c2c(Cl)cccc12)C(=O)O; Phe(3-CONH2) = NC(=O)c1cccc(C[C@H](N)C(=O)O)c1; Phe(4-CONH2) = NC(=O)c1ccc(C[C@H](N)C(=O)O)cc1; Phe(4-COOH) = N[C@@H](Cc1ccc(C(=O)O)cc1)C(=O)O; Trp(7-aza) = N[C@@H](Cc1c[nH]c2ncccc12)C(=O)O; Phe(4-CH2NH2) = NCc1ccc(C[C@H](N)C(=O)O)cc1; Pip(5R-OH) = O=C(O)[C@@H]1CC[C@@H](O)CN1; X13 = O=C([C@H]1CC[C@@H](N[*:1])C1)[*:2]; X1 = O=C([C@@H]1CC[C@H](N[*:1])C1)[*:2]; Pip(4-aza) = O=C(O)[C@@H]1CNCCN1; 4Pal = N[C@@H](Cc1ccncc1)C(=O)O; NMeE = CN[C@@H](CCC(=O)O)C(=O)O; dHyp = O=C(O)[C@H]1C[C@H](O)CN1; Cit = NC(=O)NCCC[C@H](N)C(=O)O; Ahp(2) = CCCCC[C@H](N)C(=O)O; αMeS = C[C@](N)(CO)C(=O)O; Nle = CCCC[C@H](N)C(=O)O; Ethyl(2-NH2) = NCC*; Sar = CNCC(=O)O
# Target: T1, human soluble TNFR1 (sTNFR1) (Homo sapiens, UniProt P19438)
# T1 construct: made in house; host or cells: Sf21 (baculovirus)
# T1 sequence (P19438 with tags, fused parts or gaps): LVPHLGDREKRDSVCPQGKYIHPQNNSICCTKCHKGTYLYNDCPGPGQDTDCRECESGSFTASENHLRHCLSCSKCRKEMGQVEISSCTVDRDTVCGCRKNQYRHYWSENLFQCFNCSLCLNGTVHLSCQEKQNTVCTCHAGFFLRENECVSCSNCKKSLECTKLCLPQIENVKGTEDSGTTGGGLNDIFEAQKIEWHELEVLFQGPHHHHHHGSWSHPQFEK
# Test: Human sTNFR1-peptide displacement assay (LanthaScreen Eu TR-FRET binding assay)
# Summary of the method: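 Readout is the 665/615 nm TR-FRET ratio (Eu anti-His donor, streptavidin-Alexa647 acceptor), normalized to DMSO and saturating displacer, fit by Morrison-based five-parameter logistic for Kd^app. His-tagged sTNFR1 (1-211) prebound to 100 nM biotinylated peptide SEQ ID NO.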
SMILES,Kd [nM],IC50 [nM]
"CCCCC[C@@H]1NC(=O)[C@@H]2CC[C@@H](C2)NC(=O)[C@H]([C@@H](C)c2c[nH]c3c(OC)cccc23)NC(=O)CN(C)C(=O)[C@H](Cc2cccc(C(N)=O)c2)NC(=O)[C@H](Cc2ccc(C(N)=O)cc2)NC(=O)[C@](C)(CO)NC(=O)[C@H](Cc2c[nH]c3c(C#N)cccc23)NC(=O)[C@H](Cc2ccncc2)NC(=O)[C@H](CC(N)=O)NC(=O)[C@H]2C[C@H](O)CN2C(=O)[C@H](Cc2c[nH]c3ccccc23)NC(=O)[C@@H]2CNCCN2C(=O)[C@H](Cc2ccncc2)NC1=O [SEQ ID NO. 174] (cyclo([4Pal][Trp(7-CN)][αMeS][Phe(4-CONH2)][Phe(3-CONH2)][Sar][Trp(βS-Me,7-OMe)][X1][Ahp(2)][4Pal][Pip(4-aza)]W[dHyp]N))",0.06,
"COc1cccc2c([C@H](C)[C@@H]3NC(=O)CN(C)C(=O)[C@H](Cc4ccc(C(=O)O)cc4)NC(=O)[C@H](Cc4ccc(C(N)=O)cc4)NC(=O)[C@](C)(CO)NC(=O)[C@H](Cc4c[nH]c5c(Cl)cccc45)NC(=O)[C@H](Cc4ccc(C(=O)O)cc4)NC(=O)[C@H](CC(N)=O)NC(=O)[C@H]4C[C@H](O)CN4C(=O)[C@H](Cc4c[nH]c5ncccc45)NC(=O)[C@@H]4CC[C@@H](O)CN4C(=O)[C@H](Cc4ccncc4)NC(=O)[C@H](COCCN)NC(=O)[C@@H]4CC[C@@H](C4)NC3=O)c[nH]c12 [SEQ ID NO. 148] (cyclo([4Pal][Pip(5R-OH)][Trp(7-aza)][dHyp]N[Phe(4-COOH)][Trp(7-Cl)][αMeS][Phe(4-CONH2)][Phe(4-COOH)][Sar][Trp(βS-Me,7-OMe)][X1]S(Ethyl(2-NH2))))",0.9,
C[C@@H](c1c[nH]c2ccccc12)[C@@H]1NC(=O)CN(C)C(=O)[C@H](Cc2c[nH]cn2)NC(=O)[C@H](Cc2ccc(C(=O)O)cc2)NC(=O)[C@](C)(CO)NC(=O)[C@H](Cc2c[nH]c3c(Cl)cccc23)NC(=O)[C@H](Cc2ccc(C(=O)O)cc2)NC(=O)[C@H](CC(N)=O)NC(=O)[C@H]2CCCN2C(=O)[C@H]([C@@H](C)c2c[nH]c3ccccc23)NC(=O)[C@H](CO)NC(=O)[C@H](Cc2ccc(CN)cc2)NC(=O)[C@H](CCCNC(N)=O)NC(=O)CSC[C@@H](C(N)=O)NC1=O [SEQ ID NO. 215] ({CH2CO}-[Cit][Phe(4-CH2NH2)]S[Trp(βS-Me)][dP]N[Phe(4-COOH)][Trp(7-Cl)][αMeS][Phe(4-COOH)]H[Sar][Trp(βS-Me)]C-NH2; thioether N-14),,2.85
"CCCC[C@@H]1NC(=O)[C@@H]2CC[C@@H](C2)NC(=O)[C@H]([C@@H](C)c2c[nH]c3c(OC)cccc23)NC(=O)CN(C)C(=O)[C@H](Cc2ccc(C(=O)O)cc2)NC(=O)[C@H](Cc2ccc(C(N)=O)cc2)NC(=O)[C@](C)(CO)NC(=O)[C@H](Cc2c[nH]c3c(Cl)cccc23)NC(=O)[C@H](Cc2ccc(C(=O)O)cc2)NC(=O)[C@H](CC(N)=O)NC(=O)[C@H]2C[C@H](O)CN2C(=O)[C@H](Cc2c[nH]c3ccccc23)NC(=O)[C@@H]2CC[C@@H](O)CN2C(=O)[C@H](Cc2ccncc2)NC1=O [SEQ ID NO. 247] (cyclo([4Pal][Pip(5R-OH)]W[dHyp]N[Phe(4-COOH)][Trp(7-Cl)][αMeS][Phe(4-CONH2)][Phe(4-COOH)][Sar][Trp(βS-Me,7-OMe)][X1][Nle]))",0.09,
"CCCC[C@@H]1NC(=O)[C@H]2CC[C@H](C2)NC(=O)[C@H]([C@@H](C)c2c[nH]c3c(OC)cccc23)NC(=O)CN(C)C(=O)[C@H](Cc2ccc(O)cc2)NC(=O)[C@H](Cc2ccc(C(N)=O)cc2)NC(=O)[C@](C)(CO)NC(=O)[C@H](Cc2c[nH]c3c(Cl)cccc23)NC(=O)[C@H](Cc2ccc(C(=O)O)cc2)NC(=O)[C@H](CC(N)=O)NC(=O)[C@H](CCC(=O)O)N(C)C(=O)[C@H](Cc2c[nH]c3ccccc23)NC(=O)[C@@H]2CC[C@@H](O)CN2C(=O)[C@H](Cc2ccncc2)NC1=O [SEQ ID NO. 267] (cyclo([4Pal][Pip(5R-OH)]W[NMeE]N[Phe(4-COOH)][Trp(7-Cl)][αMeS][Phe(4-CONH2)]Y[Sar][Trp(βS-Me,7-OMe)][X13][Nle]))",0.29,
"CCCC[C@@H]1NC(=O)[C@@H]2CC[C@@H](C2)NC(=O)[C@H]([C@@H](C)c2c[nH]c3c(OC)cccc23)NC(=O)CN(C)C(=O)[C@H]([C@H](O)c2ccc(C(=O)O)cc2)NC(=O)[C@H]([C@@H](O)c2ccc(C(N)=O)cc2)NC(=O)[C@](C)(CO)NC(=O)[C@H](Cc2c[nH]c3c(C#N)cccc23)NC(=O)[C@H](Cc2ccncc2)NC(=O)[C@H](CC(N)=O)NC(=O)[C@H]2C[C@H](O)CN2C(=O)[C@H](Cc2c[nH]c3ccccc23)NC(=O)[C@@H]2CC[C@@H](O)CN2C(=O)[C@H](Cc2ccncc2)NC1=O [SEQ ID NO. 155] (cyclo([4Pal][Trp(7-CN)][αMeS][X28][X24][Sar][Trp(βS-Me,7-OMe)][X1][Nle][4Pal][Pip(5R-OH)]W[dHyp]N))",0.1,
